Test results reported in patent US20260139005A1 (priority 2022, published 2026).
In brackets after ≈: the same amount, converted by molar mass. Where a SMILES comes first, the peptide text is derived from it.

System: Fusarium graminearum
Conditions: not given

Molecule | MIC (μM) Fusarium graminearum
TKPCQSDKDCAAAACRKPKVPKCINGFCKCVR [NCR13_AlaV2] | Inactive
TKPCQSDKDCKKFACAAAAVPKCINGFCKCVR [NCR13_AlaV3] | Inactive

Same assay, conditions: 48 h

Molecule | MIC (μM) Fusarium graminearum [µM]
CC[C@H](C)[C@H](NC(=O)[C@H](CS)NC(=O)[C@H](CCCCN)NC(=O)[C@@H]1CCCN1C(=O)[C@@H](NC(=O)[C@H](CCCCN)NC(=O)[C@@H]1CCCN1C(=O)[C@H](CCCCN)NC(=O)[C@H](CCCNC(=N)N)NC(=O)[C@H](CS)NC(=O)[C@H](C)NC(=O)[C@H](Cc1ccccc1)NC(=O)[C@H](CCCCN)NC(=O)[C@H](CCCCN)NC(=O)[C@H](CS)NC(=O)[C@H](CC(=O)O)NC(=O)[C@H](CCCCN)NC(=O)[C@H](CC(=O)O)NC(=O)[C@H](CO)NC(=O)[C@H](CCC(N)=O)NC(=O)[C@H](CS)NC(=O)[C@@H]1CCCN1C(=O)[C@H](CCCCN)NC(=O)[C@@H](N)[C@@H](C)O)C(C)C)C(=O)N[C@@H](CC(N)=O)C(=O)NCC(=O)N[C@@H](Cc1ccccc1)C(=O)N[C@@H](CS)C(=O)N[C@@H](CCCCN)C(=O)N[C@@H](CS)C(=O)N[C@H](C(=O)N[C@@H](CCCNC(=N)N)C(=O)O)C(C)C [NCR13, reference compound] (H-TKPCQSDKDCKKFACRKPKVPKCINGFCKCVR-OH; N-terminus and C-terminus assumed) | 6 (≈ 22 µg/mL)
CC[C@H](C)[C@H](NC(=O)[C@H](CS)NC(=O)[C@H](CCCCN)NC(=O)[C@@H]1CCCN1C(=O)[C@@H](NC(=O)[C@H](CCCCN)NC(=O)[C@@H]1CCCN1C(=O)[C@H](CCCCN)NC(=O)[C@H](CCCNC(=N)N)NC(=O)[C@H](CS)NC(=O)[C@H](C)NC(=O)[C@H](Cc1ccccc1)NC(=O)[C@H](CCCCN)NC(=O)[C@H](CCCCN)NC(=O)[C@H](CS)NC(=O)[C@H](C)NC(=O)[C@H](C)NC(=O)[C@H](C)NC(=O)[C@H](C)NC(=O)[C@H](C)NC(=O)[C@H](CS)NC(=O)[C@@H]1CCCN1C(=O)[C@H](CCCCN)NC(=O)[C@@H](N)[C@@H](C)O)C(C)C)C(=O)N[C@@H](CC(N)=O)C(=O)NCC(=O)N[C@@H](Cc1ccccc1)C(=O)N[C@@H](CS)C(=O)N[C@@H](CCCCN)C(=O)N[C@@H](CS)C(=O)N[C@H](C(=O)N[C@@H](CCCNC(=N)N)C(=O)O)C(C)C [NCR13_AlaV1] (H-TKPCAAAAACKKFACRKPKVPKCINGFCKCVR-OH; N-terminus and C-terminus assumed) | 6 (≈ 20.7 µg/mL)
CC[C@H](C)[C@H](NC(=O)[C@H](CS)NC(=O)[C@H](C)NC(=O)[C@H](C)NC(=O)[C@H](C)NC(=O)[C@H](CCCCN)NC(=O)[C@@H]1CCCN1C(=O)[C@H](CCCCN)NC(=O)[C@H](CCCNC(=N)N)NC(=O)[C@H](CS)NC(=O)[C@H](C)NC(=O)[C@H](Cc1ccccc1)NC(=O)[C@H](CCCCN)NC(=O)[C@H](CCCCN)NC(=O)[C@H](CS)NC(=O)[C@H](CC(=O)O)NC(=O)[C@H](CCCCN)NC(=O)[C@H](CC(=O)O)NC(=O)[C@H](CO)NC(=O)[C@H](CCC(N)=O)NC(=O)[C@H](CS)NC(=O)[C@@H]1CCCN1C(=O)[C@H](CCCCN)NC(=O)[C@@H](N)[C@@H](C)O)C(=O)N[C@@H](CC(N)=O)C(=O)NCC(=O)N[C@@H](Cc1ccccc1)C(=O)N[C@@H](CS)C(=O)N[C@@H](CCCCN)C(=O)N[C@@H](CS)C(=O)N[C@H](C(=O)N[C@@H](CCCNC(=N)N)C(=O)O)C(C)C [NCR13_AlaV4] (H-TKPCQSDKDCKKFACRKPKAAACINGFCKCVR-OH; N-terminus and C-terminus assumed) | 12 (≈ 42.6 µg/mL)
CC(C)[C@H](NC(=O)[C@H](CS)NC(=O)[C@H](CCCCN)NC(=O)[C@H](CS)NC(=O)[C@H](C)NC(=O)[C@H](C)NC(=O)[C@H](C)NC(=O)[C@H](C)NC(=O)[C@H](CS)NC(=O)[C@H](CCCCN)NC(=O)[C@@H]1CCCN1C(=O)[C@@H](NC(=O)[C@H](CCCCN)NC(=O)[C@@H]1CCCN1C(=O)[C@H](CCCCN)NC(=O)[C@H](CCCNC(=N)N)NC(=O)[C@H](CS)NC(=O)[C@H](C)NC(=O)[C@H](Cc1ccccc1)NC(=O)[C@H](CCCCN)NC(=O)[C@H](CCCCN)NC(=O)[C@H](CS)NC(=O)[C@H](CC(=O)O)NC(=O)[C@H](CCCCN)NC(=O)[C@H](CC(=O)O)NC(=O)[C@H](CO)NC(=O)[C@H](CCC(N)=O)NC(=O)[C@H](CS)NC(=O)[C@@H]1CCCN1C(=O)[C@H](CCCCN)NC(=O)[C@@H](N)[C@@H](C)O)C(C)C)C(=O)N[C@@H](CCCNC(=N)N)C(=O)O [NCR13_AlaV5] (H-TKPCQSDKDCKKFACRKPKVPKCAAAACKCVR-OH; N-terminus and C-terminus assumed) | 6 (≈ 21.1 µg/mL)
